One experiment has as its target T1, ECATS2 (DM-20) (Bacillus sp. PS3, UniProt A0A0M5MQR7, R103A/R115A).
T1 construct: gene uncC; double-mutant epsilon subunit between mseCFP and mVenus, 20 nm alpha-helical ER/K linker to PDGFR transmembrane domain
Briefly: FRET ratio live-cell imaging dose response. It is filed as cell-based.

The next experiment concerns the target T2, ecATeam3.10 (Bacillus sp. PS3, UniProt A0A0M5MQR7).
T2 construct: gene uncC; expressed on Neuro2A or HEK293 cells
Nature of the experiment: FRET ratio live-cell imaging dose response. The format is cell-based. To be noted: read-out: apparent dissociation constant.

Like-named read-outs stand apart in the source and are kept apart here.

Our source for the Kd values is PMC12473246, “An Improved Ratiometric FRET Biosensor with Higher Affinity for Extracellular ATP” (Sensors (Basel, Switzerland), 2025).

T1 sequence (A0A0M5MQR7 1-133, stated change not applied): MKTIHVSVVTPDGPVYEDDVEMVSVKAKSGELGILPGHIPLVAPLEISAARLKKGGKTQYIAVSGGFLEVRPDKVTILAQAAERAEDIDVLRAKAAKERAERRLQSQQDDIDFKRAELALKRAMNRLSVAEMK
T2 sequence (A0A0M5MQR7 1-133): as the sequence (A0A0M5MQR7 1-133, stated change not applied) above

For the compound `Nc1ncnc2c1ncn2[C@@H]1O[C@H](COP(=O)(O)OP(=O)(O)O)[C@@H](O)[C@H]1O` [ADP], the Kd on ECATS2 (DM-20) (read-out: apparent ADP dissociation constant) was about 100 µM.
Regarding `Nc1ncnc2c1ncn2[C@@H]1O[C@H](COP(=O)(O)OP(=O)(O)OP(=O)(O)O)[C@@H](O)[C@H]1O` [ATP], the Kd was determined as 3.7 ± 0.6 µM on ECATS2 (DM-20) (read-out: apparent dissociation constant) and 12 ± 5 µM on ecATeam3.10.
